The data set can be described thus: clinical. Particulars: human, in vivo.
In turn, `CCC1(c2cccc(O)c2)CCCCN(C)C1` (stereo not given) [MEPTAZINOL] came in with a CL renal of 1.4 mL/min/kg.

For `CC(C)(C)NC[C@H](O)COc1nsnc1N1CCOCC1` [TIMOLOL], the CL renal is 1.4 mL/min/kg.

As for `OC(Cn1cncn1)(Cn1cncn1)c1ccc(F)cc1F` [FLUCONAZOLE], the CL renal is 0.23 mL/min/kg.

Regarding `NC1CCN(c2c(F)cc3c(=O)c(C(=O)O)cn(C4CC4)c3c2Cl)C1` (stereo not given) [CLINAFLOXACIN], the CL renal was found to be 3.2 mL/min/kg.

The compound `CN(C)CCC=C1c2ccccc2COc2ccccc21` [DOXEPIN] showed a CL renal of 0.12 mL/min/kg.

Consider `C=C1CC[C@@]2(O)[C@H]3Cc4ccc(O)c5c4[C@@]2(CCN3CC2CC2)[C@H]1O5`, for which the CL renal is 0.75 mL/min/kg.

In turn, `C[C@](N)(Cc1ccc(O)c(O)c1)C(=O)O` [METHYLDOPA] came in with a CL renal of 2.1 mL/min/kg.

Take `NC(=O)c1ncn([C@@H]2O[C@H](CO)[C@@H](O)[C@H]2O)n1` [RIBAVIRIN]: the CL renal was found to be 1.7 mL/min/kg.

With `Nc1c2c(nc3ccccc13)CCCC2` [TACRINE], the CL renal was determined as 1.68 mL/min/kg.

For the compound `CC1(C)S[C@@H]2[C@H](NC(=O)[C@H](NC(=O)N3CCNC3=O)c3ccccc3)C(=O)N2[C@H]1C(=O)O` [AZLOCILLIN], the CL renal turned out to be 1.67 mL/min/kg.

Compound `C[C@@H](O)[C@H]1C(=O)N2C(C(=O)O)=C(S[C@@H]3CN[C@H](C(=O)N(C)C)C3)[C@H](C)[C@H]12` [MEROPENEM] came in with a CL renal of 2.73 mL/min/kg.

The compound `CCOc1ccccc1OC(c1ccccc1)C1CNCCO1` (stereo not given) [REBOXETINE] had a CL renal of 0.04 mL/min/kg.

Turning to `CCOC(=O)C1(c2ccccc2)CCN(C)CC1` [MEPERIDINE], the CL renal stood at 0.25 mL/min/kg.

Compound `NC(=O)NO` [HYDROXYUREA] displayed a CL renal of 0.54 mL/min/kg.

Take `CC(=O)O[C@H]1C(=O)[C@@]2(C)[C@H]([C@H](OC(=O)c3ccccc3)[C@]3(O)C[C@H](OC(=O)[C@H](O)[C@@H](NC(=O)c4ccccc4)c4ccccc4)C(C)=C1C3(C)C)[C@]1(OC(C)=O)CO[C@@H]1C[C@@H]2O` [PACLITAXEL]: the CL renal came to 0.64 mL/min/kg.

As for `Cc1cc(=O)n(-c2ccccc2)n1C` [ANTIPYRINE], the CL renal is 0.02 mL/min/kg.

The compound `CCN(CC)CCNC(=O)c1cc(Cl)c(N)cc1OC` [METOCLOPRAMIDE] yielded a CL renal of 1.14 mL/min/kg.

`CCN(C)C(=O)Oc1cccc([C@H](C)N(C)C)c1` [RIVASTIGMINE] registered a CL renal of 0.12 mL/min/kg.

Compound `CCCNC(=O)NS(=O)(=O)c1ccc(Cl)cc1` [CHLORPROPAMIDE] yielded a CL renal of 0.01 mL/min/kg.

On to `NC12CC3CC(CC(C3)C1)C2` [AMANTADINE], for which the CL renal turned out to be 4.8 mL/min/kg.

`CCN[C@@H]1C[C@H](N)[C@@H](O[C@H]2OC(CN)=CC[C@H]2N)[C@H](O)[C@H]1O[C@H]1OC[C@](C)(O)[C@H](NC)[C@H]1O` [NETILMICIN] returned a CL renal of 0.28 mL/min/kg.

In turn, `CCO[C@@H](Cc1ccc(OCCc2ccc(OS(C)(=O)=O)cc2)cc1)C(=O)O` [TESAGLITAZAR] showed a CL renal of 0.01 mL/min/kg.

Compound `CCCCN1CCCCC1C(=O)Nc1c(C)cccc1C` (stereo not given) [BUPIVACAINE] displayed a CL renal of 0.09 mL/min/kg.

The compound `CCCCCNC(=N)N/N=C/c1c[nH]c2ccc(OC)cc12` [TEGASEROD] displayed a CL renal of 0.36 mL/min/kg.

`Cc1cccc(N2CC(CO)OC2=O)c1` (stereo not given) [TOLOXATONE] had a CL renal of 0.11 mL/min/kg.

As for `CC(C)=CCN1CC[C@]2(C)c3cc(O)ccc3C[C@H]1[C@H]2C` [(+)-PENTAZOCINE], the CL renal was 2.99 mL/min/kg.

Take `CCN1CCC[C@H]1CNC(=O)c1c(OC)ccc(Br)c1OC` [REMOXIPRIDE]: the CL renal worked out at 0.44 mL/min/kg.

The compound `CCNCC(O)c1cccc(O)c1` (stereo not given) [ETILEFRINE] came in with a CL renal of 3.96 mL/min/kg.

`CC[C@H](C)C(=O)O[C@H]1C[C@H](O)C=C2C=C[C@H](C)[C@H](CC[C@@H](O)C[C@@H](O)CC(=O)O)[C@H]21` [PRAVASTATIN] gave a CL renal of 6.3 mL/min/kg.

`CCN(CC)CCCC(C)Nc1ccnc2cc(Cl)ccc12` (stereo not given) [CHLOROQUINE] registered a CL renal of 2.3 mL/min/kg.

Compound `C[C@H](N[C@@H](CCc1ccccc1)C(=O)O)C(=O)N1Cc2ccccc2C[C@H]1C(=O)O` gave a CL renal of 0.9 mL/min/kg.

`CCCCc1ncc(/C=C(\Cc2cccs2)C(=O)O)n1Cc1ccc(C(=O)O)cc1` [EPROSARTAN] displayed a CL renal of 0.7 mL/min/kg.

Compound `Nc1ccc(S(=O)(=O)Nc2ncccn2)cc1` [SULFADIAZINE] returned a CL renal of 0.34 mL/min/kg.

Take `COc1ccccc1OCCNCC(O)COc1cccc2[nH]c3ccccc3c12` (stereo not given) [CARVEDILOL]: the CL renal was 0.1 mL/min/kg.

Compound `OCCN1C[C@H](O)[C@@H](O)[C@H](O)[C@H]1CO` [MIGLITOL] gave a CL renal of 1.7 mL/min/kg.

As for `C=CCc1ccccc1OCC(O)CNC(C)C` (stereo not given) [ALPRENOLOL], the CL renal worked out at 0.6 mL/min/kg.

`COc1cc(NCc2ccc3nc(N)nc(N)c3c2C)cc(OC)c1OC` [TRIMETREXATE] gave a CL renal of 0.14 mL/min/kg.

`COC(=O)[C@H]1[C@@H](OC(=O)c2ccccc2)C[C@@H]2CC[C@H]1N2C` [COCAINE]: the CL renal was determined as 0.4 mL/min/kg.

Consider `COc1ccc(C(CN(C)C)C2(O)CCCCC2)cc1` (stereo not given) [VENLAFAXINE], for which the CL renal worked out at 0.64 mL/min/kg.

In turn, `COc1cc2nc(N3CCN(C(=O)C4CCCO4)CC3)nc(N)c2cc1OC` (stereo not given) [TERAZOSIN] had a CL renal of 0.13 mL/min/kg.

Compound `NCCCC[C@H](N[C@@H](CCc1ccccc1)C(=O)O)C(=O)N1CCC[C@H]1C(=O)O` [LISINOPRIL ANHYDROUS] gave a CL renal of 1.2 mL/min/kg.

For the compound `COc1ccc2c(c1)c(CC(=O)O)c(C)n2C(=O)c1ccc(Cl)cc1` [INDOMETHACIN], the CL renal came out at 0.2 mL/min/kg.

In turn, `CCCCNc1cc(C(=O)O)cc(S(N)(=O)=O)c1Oc1ccccc1` [BUMETANIDE] gave a CL renal of 0.85 mL/min/kg.

As for `CC(C)[C@H]1CC[C@H](C(=O)N[C@H](Cc2ccccc2)C(=O)O)CC1` [NATEGLINIDE], the CL renal turned out to be 0.1 mL/min/kg.

`C[C@H](N[C@@H](CCc1ccccc1)C(=O)O)C(=O)N1CCC[C@H]1C(=O)O` [ENALAPRILAT ANHYDROUS]: the CL renal is 1.6 mL/min/kg.

Take `COc1cccc2c1C(=O)c1c(O)c3c(c(O)c1C2=O)C[C@@](O)(C(=O)CO)C[C@@H]3O[C@H]1C[C@H](N)[C@H](O)[C@H](C)O1` [DOXORUBICIN]: the CL renal was 1.83 mL/min/kg.

As to `CCN(CC)CCNC(=O)c1cc(Br)c(N)cc1OC` [BROMOPRIDE], the CL renal is 1.4 mL/min/kg.

`C[C@H]1C[C@@H]2[C@H]([C@@H](O)C[C@@]3(C)[C@H]2CC[C@]3(O)C(=O)CO)[C@@]2(C)C=CC(=O)C=C12` [METHYLPREDNISOLONE] showed a CL renal of 0.3 mL/min/kg.

Turning to `CC1=C(C(=O)O)N2C(=O)[C@@H](NC(=O)[C@H](N)c3ccc(O)cc3)[C@H]2SC1` [CEFADROXIL], the CL renal was found to be 2.33 mL/min/kg.

With `Clc1ccc2nsnc2c1NC1=NCCN1` [TIZANIDINE], the CL renal was 0.33 mL/min/kg.

`Cc1[nH]c(=O)c(C#N)cc1-c1ccncc1` [MILRINONE] came in with a CL renal of 5 mL/min/kg.

Turning to `CCCCCCCCCC(=O)N[C@@H](Cc1c[nH]c2ccccc12)C(=O)N[C@H](CC(N)=O)C(=O)N[C@@H](CC(=O)O)C(=O)N[C@@H]1C(=O)NCC(=O)N[C@@H](CCCN)C(=O)N[C@@H](CC(=O)O)C(=O)N[C@H](C)C(=O)N[C@@H](CC(=O)O)C(=O)NCC(=O)N[C@H](CO)C(=O)N[C@@H]([C@H](C)CC(=O)O)C(=O)N[C@@H](CC(=O)c2ccccc2N)C(=O)O[C@@H]1C`, the CL renal stood at 0.09 mL/min/kg.

Consider `N[C@@H](C(=O)N[C@@H]1C(=O)N2C(C(=O)O)=C(CSc3c[nH]nn3)CS[C@H]12)c1ccc(O)cc1` [CEFATRIZINE], for which the CL renal was 2.64 mL/min/kg.

Turning to `C[C@]12C=CC(=O)C=C1CC[C@@H]1[C@@H]2C(=O)C[C@@]2(C)[C@H]1CC[C@]2(O)C(=O)CO` [PREDNISONE], the CL renal was found to be 0.05 mL/min/kg.

Regarding `Cc1ccsc1C(=CCCN1CCC[C@@H](C(=O)O)C1)c1sccc1C` [TIAGABINE], the CL renal came to 0.03 mL/min/kg.

For `NNc1nncc2ccccc12` [HYDRALAZINE], the CL renal was 10.8 mL/min/kg.

For `COc1ccc(C(=O)Nc2ccccc2CCC2CCCCN2C)cc1` (stereo not given) [ENCAINIDE], the CL renal came out at 0.78 mL/min/kg.

In the case of `CCCCCN(CCCOC)C(=O)[C@@H](CCC(=O)O)NC(=O)c1ccc(Cl)c(Cl)c1` [DEXLOXIGLUMIDE], the CL renal amounted to 0.41 mL/min/kg.

`CC1=C(C(=O)O)N2C(=O)[C@@H](NC(=O)[C@H](N)C3=CCC=CC3)[C@H]2SC1` [CEPHRADINE] returned a CL renal of 3.14 mL/min/kg.

Compound `Cc1ncc([N+](=O)[O-])n1CCO` [METRONIDAZOLE] came in with a CL renal of 0.19 mL/min/kg.

On to `C[C@@H](O)[C@H]1C(=O)N2C(C(=O)[O-])=C(SC3Cn4cnc[n+]4C3)[C@H](C)[C@H]12` (stereo not given in full) [BIAPENEM], for which the CL renal was 1.23 mL/min/kg.

As to `CSc1ccc(C(=O)c2[nH]c(=O)[nH]c2C)cc1` [ENOXIMONE], the CL renal is 0.1 mL/min/kg.

`CN(C)[C@@H]1C(O)=C(C(N)=O)C(=O)[C@@]2(O)C(O)=C3C(=O)c4c(O)cccc4[C@@](C)(O)[C@H]3C[C@@H]12` [TETRACYCLINE] had a CL renal of 0.9 mL/min/kg.

`C[C@H]1c2cccc(O)c2C(=O)C2=C(O)[C@]3(O)C(=O)C(C(N)=O)=C(O)[C@@H](N(C)C)[C@@H]3[C@@H](O)[C@@H]21.O` [DOXYCYCLINE] displayed a CL renal of 0.19 mL/min/kg.

Compound `CN(C)CCC(c1ccc(Cl)cc1)c1ccccn1` (stereo not given) [CHLORPHENIRAMINE] gave a CL renal of 0.43 mL/min/kg.

In turn, `Cn1c(=O)c2[nH]cnc2n(C)c1=O.O` [THEOPHYLLINE] returned a CL renal of 0.09 mL/min/kg.

In turn, `CN(C)CCCN1c2ccccc2Sc2ccc(Cl)cc21` [CHLORPROMAZINE] had a CL renal of 0.16 mL/min/kg.

With `NS(=O)(=O)c1cc(C2(O)NC(=O)c3ccccc32)ccc1Cl` (stereo not given) [CHLORTHALIDONE], the CL renal is 0.98 mL/min/kg.

`COc1ccc2c3c1O[C@H]1[C@@H](O)C=C[C@H]4[C@@H](C2)N(C)CC[C@@]341` [CODEINE] came in with a CL renal of 1.7 mL/min/kg.

As to `O=c1[nH]c2ccccc2n1CCCN1CCC(n2c(=O)[nH]c3cc(Cl)ccc32)CC1` [DOMPERIDONE], the CL renal stood at 0.04 mL/min/kg.

Turning to `COc1ccc([C@@H]2Sc3ccccc3N(CCN(C)C)C(=O)[C@@H]2OC(C)=O)cc1` [DILTIAZEM], the CL renal was determined as 9.23 mL/min/kg.

With `Oc1ccc2c3c1O[C@H]1[C@@H](O)CC[C@@]4(O)[C@@H](C2)N(CC2CCC2)CC[C@]314` [NALBUPHINE], the CL renal was 0.95 mL/min/kg.

`C[C@H]1O[C@@H](n2cc(F)c(=O)[nH]c2=O)[C@H](O)[C@@H]1O` [DOXIFLURIDINE]: the CL renal amounted to 4.3 mL/min/kg.

As to `CCCC(C)C1(CC)C(=O)NC(=S)NC1=O` (stereo not given) [THIOPENTAL], the CL renal was found to be 0.08 mL/min/kg.

As for `CC[C@H]1OC(=O)[C@H](C)C(=O)[C@H](C)[C@@H](O[C@@H]2O[C@H](C)C[C@H](N(C)C)[C@H]2O)[C@](C)(OC)C[C@@H](C)C(=O)[C@H](C)[C@H]2N(CCCCn3cnc(-c4cccnc4)c3)C(=O)O[C@]12C` [TELITHROMYCIN], the CL renal came out at 3.14 mL/min/kg.
